# Entries after “also recorded” stand apart in the source; their conditions may differ. Starred links: 1 amine or outer side, 2 acyl side, 3 side chain; linkers in the order of their positions; H or OH if unused. Positions of bridges follow the written chain, without caps; N, C: chain ends. Non-standard residues stand in square brackets, D forms with d. Residues, ends and D or L forms follow the SMILES beside them. Chains are numbered I, II in the order given. Actinocin(9to1) = Cc1c2oc3c(C)ccc(C(=O)[*:1])c3nc-2c(C(=O)[*:2])c(N)c1=O; NMeV = CN[C@H](C(=O)O)C(C)C; Sar = CNCC(=O)O
# B1: PDGF-BB: platelet-derived growth factor BB, chemotactic factor for human fibroblasts (protein, UniProt P01127 82-190, looked up)
# Platelet-derived growth …: SLGSLTIAEPAMIAECKTRTEVFEISRRLIDRTNANFLVWPPCVEVQRCSGCCNNRNVQCRPTQVQLRPVQVRKIEIVRKKPIFKKATVTLEDHLACKCETVAAARPVT
# Experiments:
# [1] = tested on: Human foreskin fibroblasts AG1523; assay: Chemotaxis assay, leading front technique in modified Boyden chamber, towards PDGF-BB; type: cell-based; settings: for effect on FVIIa/TF-mediated chemotactic response to PDGF-BB: 30 min pretreatment; for effect on enhanced migration response (hyperchemotaxis) transduced by FVIIa/TF: TAP 0.2-10 μM, Hirudin 5 U/ml; for effect on migration of fibroblasts in response to PDGF without FVIIa: no FVIIa present
# Experimental: Fibroblasts expressing active TF (FIG. 1A and FIG. 1B) were incubated with 100 nM of FVIIa and seeded in the upper part of the modified Boyden chamber; while media containing 10% FBS and PDGF-BB at different concentrations were added below the 150 μm micropore filter. The migration of the cells under conditions where medium containing 10% FBS without PDGF-BB was added below the filter was used as a measure of random migration, and calculated as 100% migration. A significant migration response was recorded at a concentration of 0.01 ng/ml PDGF-BB in cells stimulated by FVIIa compared to 1 ng/ml PDGF-BB for cells not ligated with FVIIa, i.e. a 100-fold difference in concentration (FIG. 2). At 0.01-0.1 ng/ml PDGF-BB the migration response to FVIIa increased dose dependently, starting at 25 nM and with a maximal effect at 50-100 nM FVIIa (FIG. 3A-D). […] To test whether the proteolytically active FVIIa was mandatory for the hyperchemotactic response to PDGF-BB, fibroblasts were also incubated with 100 nM FFR-FVIIa and assayed in the Boyden chamber in the same way (FIG. 2).
# An irrelevant monoclonal IgG antibody did neither prevent hyperchemotaxis induced by FVIIa nor the inhibition of the migration response induced by FFR-FVIIa (data not shown).
# Chemotaxis assay. The migration response of fibroblasts was assayed by means of the leading front technique in a modified Boyden chamber, as previously described (Siegbahn, A., Hanimacher, A., Westermark, B., Heldin, C-H. Differential effects of the various isoforms of platelet-derived growth factor on chemotaxis of fibroblasts, monocytes, and granulocytes. J. Clin. Invest. 85, 916-920 (1990) and Nistér, M., Hammacher, A., Mellström, K., Siegbahn, A., Rönnstrand, L., Westermark, B., Heldin, C-H. A glioma-derived PDGF A chain homodimer has different functional activities from a PDGF AB heterodimer purified from human platelets. Cell 52, 791-799 (1988)). Micropore filters (pore size 8 μm) were coated with a solution of type-1 collagen at room temperature over night. The filters were air dried for 30 minutes immediately before use. Human foreskin fibroblasts AG1523, were grown to confluence in Eagle's MEM supplemented with 10% FBS. The cells were detached by trypsinization (2.5 mg/ml for 10 minutes at 37° C.) and suspended in Eagle's MEM with 10% FBS. The fibroblasts were incubated for 10 minutes with or without FVIIa or FFR-FVIIa before assay. One hundred microliters of the cell suspension (2×10^5 cells/ml) was added above the filter of the Boyden chamber. PDGF-BB was diluted in assay media (Eagle's MEM with 10% FBS) and added below the filter in the chamber. The cells were incubated for 6 hours at 37° C. in a humidified chamber containing 95% air/5% CO2. FVIIa or FFR-FVIIa were present during the entire experiment. The filters were then removed, fixed in ethanol, stained with Mayer's Hemalun, and mounted. Migration was measured as the distance of the two furthest migrating fibroblast nuclei of one high-power field (12.5×24) in focus. The migration distance in each filter was calculated as the mean of the readings of at least three different parts of the filter. Experiments were performed with two to four separate filters for each concentration of chemoattractant. For each set of experiments, the migration of fibroblasts toward the assay media served as control.
# In cases when anti-TF monoclonal antibodies or inhibitors to coagulation factors, TAP and Hirudin, were used, cells were preincubated for 10 minutes with these agents, then with or without FVIIa or FFR-FVIIa before the chemotaxis assay was performed. Antibodies, TAP or Hirudin were also present during the entire chemotaxis experiment. In experiments where the effects on the migration response of different inhibitors, LY294002, U73122 or U73343, were tested, cells were preincubated for 30 minutes with the inhibitors at indicated concentrations, and the inhibitors were also present throughout the experiments.
# [2] = tested on: Cyr61 mRNA in WI-38 cells; assay: Northern blot analysis of Cyr61 expression; type: cell-based, human; settings: for effect on VIIa-induced expression of Cyr61: 30 min preincubation, then VIIa 5 μg/ml 45 min, TAP 200 nM, actinomycin D and cycloheximide 10 μg/ml
# Experimental: Northern Blot Analysis. Total RNA was prepared using TRIZOL reagent from quiescent monolayer of WI-38 cells that were exposed to VIIa and other materials as described in Results. Northern blot analysis was carried out using standard procedure. Briefly, 10 μg of total RNA was size fractionated by gel electrophoresis in 1% agarose/6% formaldehyde gels and transferred onto the nitrocellulose membrane by a capillary blot method. Northern blots were prehybridized at 42° C. with a solution containing 50% formamide, 5×SSC, 50 mM Tris.HCl, pH 7.5, 0.1% sodium pyrophosphate, 1% SDS, 1% polyvinylpyrrolidone, 1% Ficoll, 25 mM EDTA, 100 μg/ml denatured salmon sperm DNA and 1% BSA and hybridized with ^32P-labeled Cyr61 cDNA probe (106 cpm/ml). The hybridized membranes were exposed to either Dupont NEF or Fuji RX X-ray film. For quantification purposes, the membranes were exposed to phosphor screen for 1 to 4 h, and the exposed screens were analyzed in a Phosphorlmger (Molecular Dynamics) using “Image-quant” software. To obtain mean values, the units (counts) obtained from different experiments were normalized to an internal control (counts present in control-treated sample).
# Confirmation of differential expression of Cyr61. To validate the data obtained in microarray, we have patiented the RNA samples from the control and VIIa-treated cells (the same RNA samples that have been used to prepare poly (A) RNA for probe generation in the microarray) to Northern blot analysis and probed with radiolabeled Cyr61 cDNA. […] However, the intensity of hybridization signal was much higher in RNA isolated from VIIa-treated cells (FIG. 11).
# Kinetics of Vila-induced expression of Cyr61. To determine the kinetics of Cyr61 expression, quiescent fibroblasts were treated for varying time periods with 5 μg/ml VIIa. Total RNA was extracted and patiented to Northern blot analysis. […] The expression was peaked at about 45 min and thereafter declined to the base level in 2 to 3 h. Since it had been reported that expression of Cyr61 in mouse fibroblasts after stimulation with serum and growth factor was sustained for several hours (up to 8 to 10 h) before repression occurs, we have examined the effect of serum and PDGF on kinetics of Cyr61 expression in quiescent human fibroblasts, WI-38. […] Similar results obtained with serum-induced expression of Cyr61 (data not shown).
# Factor VIIa-dose dependent induced expression of Cyr61. To determine dose-dependency of VIIa, quiescent fibroblasts were treated with varying doses FVIIa (0.1 to 5 μg/ml) for 45 min and then total RNA samples from the cells were patiented to Northern blot analysis.
# Factor VIIa-catalytic activity is required for Cyr61 induction. To test whether VIIa catalytic activity is required for the induction of Cyr61, WI-38 cells were treated with VIIa and active-site inactivated FVIIa (FVIIai) for 45 min and the expression of Cyr61 was evaluated by Northern blot analysis. […] It is unlikely that VIIa-induced expression of Cyr61 in our experiments was the result of generation of down-stream coagulation factors, FXa and thrombin.
# Involvement of transcriptional mechanism for the induction of Cyr61 mMRNA steady-state levels by VIIa. To investigate whether transcription is involved in VIIa-mediated increase in Cyr61 mRNA steady-state levels, quiescent WI-38 cells were incubated with actinomycin-D (10 μg/ml) for 30 min before the addition of VIIa for 45 min. […] This finding indicates a transcriptional mechanism for induction of Cyr61.
# To investigate whether de novo protein synthesis is required for the induction of Cyr61 nRNA by VIIa, WI-38 cells were pretreated with the protein synthesis inhibitor cycloheximide before the cells were exposed to VIIa for 45 min.
# [3] = tested on: PLC-γ1 in AG1518 fibroblasts; assay: Assay for agonist-induced PLC-γ1 tyrosine phosphorylation; type: cell-based, human; settings: 100 nM FVIIa or FFR-FVIIa one hour; PDGF-BB 2, 10 or 100 ng/ml 5 minutes
# Experimental: In order to determine whether the PLC-γ1 isoform, which is activated by certain tyrosine kinase receptors, was responsible for the increased PLC activity induced by FVIIa/TF, tyrosine phosphorylation of PLC-γ1 was studied. Fibroblasts were incubated in the absence or presence of 100 nM FVIIa or FFR-FVIIa for one hour, followed by the stimulation with 0, 2, 10 or 100 ng/ml PDGF-BB. After 5 minutes of incubation, the cells were lysed and PLC-γ1 was immunoprecipitated, separated by SDS-PAGE and immunoblotted with antiphosphotyrosine antibodies. […] Thus, other PLC isoforms than PLC-γ1 are responsible for the increased PLC activity after FVIIa stimulation.
# Assay for agonist-induced PLC-γ1 phosphorylation. Semi-confluent cultures of AG1518 were serum starved overnight (approx. 20 hours) in medium containing 0.1% FBS, and then incubated in the absence or presence of 100 nM FVIIa or FFR-FVIIa for one hour followed by incubation with 0, 2, 10 or 100 ng/ml PDGF-BB for 5 minutes at 37° C. […]
# [4] = 100 nM FVIIa, 0.1 ng/ml PDGF-BB
molecule,measurement,setting,value
COc1ccc2c(c1)CC[C@@H]1[C@@H]2CC[C@]2(C)[C@@H](NCCCCCCN3C(=O)C=CC3=O)CC[C@@H]12 [U73122],concentration giving total inhibition of the hyperchemotactic response,[1]; [4],1 µM
same,effect on FVIIa/TF-mediated chemotactic response to PDGF-BB,[1]; [4],inhibited the hyperchemotacic response to 0.1 ng/ml PDGF-BB in a dose-dependent way
COc1ccc2c(c1)CC[C@@H]1[C@@H]2CC[C@]2(C)[C@@H](NCCCCCCN3C(=O)CCC3=O)CC[C@@H]12 [U73343],effect on FVIIa/TF-mediated chemotactic response to PDGF-BB,[1]; [4],No effect on chemotaxis
"Cc1c2oc3c(C)ccc(C(=O)N[C@@H]4C(=O)N[C@H](C(C)C)C(=O)N5CCC[C@H]5C(=O)N(C)CC(=O)N(C)[C@@H](C(C)C)C(=O)O[C@@H]4C)c3nc-2c(C(=O)N[C@@H]2C(=O)N[C@H](C(C)C)C(=O)N3CCC[C@H]3C(=O)N(C)CC(=O)N(C)[C@@H](C(C)C)C(=O)O[C@@H]2C)c(N)c1=O [actinomycin-D] (I: T[dV]P[Sar][NMeV] / II: T[dV]P[Sar][NMeV]; ester I:1-I:C, II:1-II:C; linker I:N-II:N via Actinocin(9to1))",effect on VIIa-induced expression of Cyr61,[2],inhibited the stimulator effect of VIIa
C[C@@H]1C[C@@H]([C@H](O)CC2CC(=O)NC(=O)C2)C(=O)[C@@H](C)C1 [cycloheximide],effect on VIIa-induced expression of Cyr61,[2],not blocked; also recorded: markedly increased the VIIa-induced Cyr61 mRNA steady-state levels
Hirudin,effect on VIIa-induced expression of Cyr61,[2],failed to abolish
same,effect on enhanced migration response (hyperchemotaxis) transduced by FVIIa/TF,[1]; 100 nM FVIIa,"Neither addition of 5 U/ml Hirudin, a specific thrombin inhibitor, had any effect"
same,effect on migration of fibroblasts in response to PDGF without FVIIa,[1],did not influence
"TAP: Recombinant Tick anticoagulant peptide, specifically blocks the active site of FXa (YNRLCIKPRDWIDECDSNEGGERAYFRNGKGGCDSFWICPEDHTGADYYSSYRDCFNACI; UniProt P17726 1-60, looked up)",effect on VIIa-induced expression of Cyr61,[2],failed to abolish
same,effect on enhanced migration response (hyperchemotaxis) transduced by FVIIa/TF,[1]; 100 nM FVIIa,not blocked
same,effect on migration of fibroblasts in response to PDGF without FVIIa,[1],did not influence
thrombin,induction of Cyr61 expression (data not shown),[2]; conditions not given,could also induce the expression of Cyr61
B1,"tyrosine phosphorylation of PLC-γ1, agent alone",[3],significant increase in tyrosine phosphorylation of PLC-γ1
same,kinetics of Cyr61 expression upon stimulation,[2]; PDGF-BB 10 ng/ml,expressed only transiently
same,time to full repression of Cyr61 after addition of stimuli,[2]; PDGF-BB 10 ng/ml,2 h
